In article PMC7413254 (Nature Communications, 2020):
Where two headings read alike, the source gives them in different places.

Columns and labels:
PfCRT^3D7 [1] = molecular target: T1, PfCRT^3D7 (Plasmodium falciparum, UniProt Q8IBZ9); test: cell-based; type: cell-based; conditions: total [3H]CQ transport; for inhibition at 500 µM: [test solute] = 0.5 mM; for inhibition at 1000 µM: [test solute] = 1 mM; for inhibition at 2000 µM: [test solute] = 2 mM
Method in brief: (§1)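 Radioactivity accumulated per oocyte, read by liquid scintillation after 10% SDS lysis, served as the uptake measure. Incubations ran 1.5 h at 27.5 °C in ND96 at pH 5.5, matching digestive-vacuole acidity.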

PfCRT^Ecu1110 [2] = molecular target: T2, PfCRT^Ecu1110 (Plasmodium falciparum, UniProt Q9N623, A220S/I356L/K76T/N326D); test: [3H]CQ uptake into Xenopus oocytes, cis-inhibition by unlabelled solute; type: cell-based
T2 sequence (Q9N623 whole entry A220S/I356L/K76T/N326D): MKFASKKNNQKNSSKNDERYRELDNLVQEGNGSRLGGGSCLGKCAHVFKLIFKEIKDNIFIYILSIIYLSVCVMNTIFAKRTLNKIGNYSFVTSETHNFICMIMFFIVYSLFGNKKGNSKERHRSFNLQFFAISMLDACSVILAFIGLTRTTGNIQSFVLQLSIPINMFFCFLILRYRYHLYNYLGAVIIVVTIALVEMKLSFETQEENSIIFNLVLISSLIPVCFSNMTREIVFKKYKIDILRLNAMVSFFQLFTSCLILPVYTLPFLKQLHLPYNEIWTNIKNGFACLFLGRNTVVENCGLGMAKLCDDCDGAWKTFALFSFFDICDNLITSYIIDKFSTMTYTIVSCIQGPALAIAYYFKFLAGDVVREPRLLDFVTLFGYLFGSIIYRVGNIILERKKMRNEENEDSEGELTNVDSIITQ
Method in brief: as §1

PfCRT^Dd2 [3] = molecular target: T3, PfCRT^Dd2 (Plasmodium falciparum, UniProt Q9N623, A220S/I356T/K76T/M74I/N326S/N75E/Q271E/R371I); test: as above; type: cell-based
T3 sequence (Q9N623 whole entry A220S/I356T/K76T/M74I/N326S/N75E/Q271E/R371I): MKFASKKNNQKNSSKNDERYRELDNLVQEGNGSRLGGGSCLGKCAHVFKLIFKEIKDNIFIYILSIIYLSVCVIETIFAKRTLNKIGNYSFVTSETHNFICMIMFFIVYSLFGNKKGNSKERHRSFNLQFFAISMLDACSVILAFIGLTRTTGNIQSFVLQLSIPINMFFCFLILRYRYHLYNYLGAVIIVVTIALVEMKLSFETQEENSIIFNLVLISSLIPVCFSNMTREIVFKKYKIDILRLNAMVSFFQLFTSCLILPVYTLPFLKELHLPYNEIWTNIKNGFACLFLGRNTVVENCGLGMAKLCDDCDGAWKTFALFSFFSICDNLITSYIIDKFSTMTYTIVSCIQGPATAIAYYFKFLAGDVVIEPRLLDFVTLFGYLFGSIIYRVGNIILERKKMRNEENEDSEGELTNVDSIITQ
Method in brief: as §1

non-expressing oocytes [4] = test: cells; type: cell-based, Xenopus laevis; conditions: Xenopus laevis, total [3H]CQ transport; for inhibition at 500 µM: [test solute] = 0.5 mM; for inhibition at 1000 µM: [test solute] = 1 mM; for inhibition at 2000 µM: [test solute] = 2 mM
Method in brief: as §1

PfCRT [5] = test: Influx of VF-6 via PfCRT into the oocyte, solutes tested as potential co-substrates; type: cell-based, Plasmodium falciparum; parameters: key: X: Compounds that have been tested as potential co-substrates but are not required for influx of VF-6 via PfCRT into the oocyte; conditions: X marks the solute
non-expressing oocytes [6] = type: cell-based, Xenopus laevis; conditions: total [3H]CQ transport; for Uptake of [3H]CQ (% non-expressing oocyte control), trans-stimulation: non-expressing oocytes, normalised to the oocyte type control; for Uptake of [3H]CQ (% PfCRTDd2 control), trans-stimulation, non-expressing oocytes: mean ± SEM, SEM
Method in brief: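 Oocytes (ten per treatment, ≥4 independent frogs/days) were preloaded by injecting VF-6 in 25 nL ND96 at pH 5.0, 5.5, 6.0 or 7.0, or Na^+-free choline buffer, then uptake run 1.5 h, 27.5 °C, ND96 pH 5.5 by default. Internal concentrations assumed ~400 nL oocyte volume.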

PfCRT [7] = test: Test of solutes as potential co-substrates for influx of VF-6 via PfCRT into the oocyte; type: cell-based, Plasmodium falciparum; parameters: key: X: Compounds that have been tested as potential co-substrates but are not required for influx of VF-6 via PfCRT into the oocyte; conditions: X = tested
PfCRT^Ecu1110 [8] = molecular target: T2, PfCRT^Ecu1110; test: cell-based; type: cell-based; conditions: […]
Method in brief: (§2)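 Transport measured in Xenopus oocytes expressing the transporters, 1.5 h at 27.5 °C in ND96 pH 5.5 unless noted. For trans-stimulation, VF-6 injected in 25 nL ND96 at pH 5.0–7.0 or Na^+-free (choline) buffer; intracellular levels based on ~400 nL oocyte volume. Ten oocytes per treatment, ≥4 experiments.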

PfCRT^Dd2 [9] = molecular target: T3, PfCRT^Dd2; test: cell-based; type: cell-based; conditions: […]; for activity at 45000 µM: [test solute]i = 45 mM (30 mM for some solutes due to solubility)
Method in brief: as §2

PfNT1 = molecular target: T4, PfNT1 (Plasmodium falciparum, UniProt Q8IDM6); test: cell-based; type: cell-based; conditions: […], read-out: Uptake of [3H]CQ (% PfCRTDd2 control), trans-stimulation, PfNT1; SEM
T4 construct: expressed in transfected cells; host or cells: Xenopus laevis oocytes (stage V-VI), cRNA-injected
T4 sequence (Q8IDM6 whole entry): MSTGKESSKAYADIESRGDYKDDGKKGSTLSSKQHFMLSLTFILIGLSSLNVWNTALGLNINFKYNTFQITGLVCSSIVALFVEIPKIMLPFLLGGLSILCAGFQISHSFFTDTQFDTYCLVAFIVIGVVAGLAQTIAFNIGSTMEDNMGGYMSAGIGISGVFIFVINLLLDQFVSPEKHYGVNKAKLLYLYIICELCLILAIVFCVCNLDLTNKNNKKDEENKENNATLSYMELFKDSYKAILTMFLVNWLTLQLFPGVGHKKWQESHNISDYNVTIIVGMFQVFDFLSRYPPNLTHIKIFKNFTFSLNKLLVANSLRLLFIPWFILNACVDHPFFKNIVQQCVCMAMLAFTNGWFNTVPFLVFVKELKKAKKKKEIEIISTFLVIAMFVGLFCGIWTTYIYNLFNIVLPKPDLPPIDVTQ
Method in brief: as §2

PfCRT^3D7 [10] = molecular target: T1, PfCRT^3D7; test: cell-based; type: cell-based
Method in brief: as §2

[11] = PfCRT3D7 oocytes, normalised to the oocyte type control, read-out: Uptake of [3H]CQ (% PfCRT3D7 control), cis-inhibition
[12] = mean ± SEM, SEM, read-out: Uptake of [3H]CQ (% PfCRTDd2 control), cis-inhibition, PfCRT3D7
[13] = read-out: PfCRT-mediated [3H]CQ transport, cis-inhibition (% PfCRTEcu1110 control)
[14] = read-out: Uptake of [3H]CQ (% PfCRTDd2 control), cis-inhibition, PfCRTEcu1110, SEM
[15] = read-out: Uptake of [3H]CQ (% PfCRTEcu1110 control), cis-inhibition
[16] = read-out: [3H]CQ transport (% PfCRTEcu1110 control), cis-inhibition, PfCRTEcu1110, SEM
[17] = read-out: PfCRT-mediated [3H]CQ transport, cis-inhibition (% PfCRTDd2 control)
[18] = read-out: Uptake of [3H]CQ (% PfCRTDd2 control), cis-inhibition
[19] = read-out: Uptake of [3H]CQ (% PfCRTDd2 control), cis-inhibition, PfCRTDd2, SEM
[20] = read-out: [3H]CQ transport (% PfCRTDd2 control), cis-inhibition, PfCRTDd2, SEM
[21] = Oocyte, mean ± SEM, SEM, read-out: Uptake of [3H]CQ (% PfCRTDd2 control), cis-inhibition, non-expressing oocytes
[22] = non-expressing oocytes, normalised to the oocyte type control, read-out: Uptake of [3H]CQ (% non-expressing oocyte control), cis-inhibition

T1 sequence (Q8IBZ9 59-398): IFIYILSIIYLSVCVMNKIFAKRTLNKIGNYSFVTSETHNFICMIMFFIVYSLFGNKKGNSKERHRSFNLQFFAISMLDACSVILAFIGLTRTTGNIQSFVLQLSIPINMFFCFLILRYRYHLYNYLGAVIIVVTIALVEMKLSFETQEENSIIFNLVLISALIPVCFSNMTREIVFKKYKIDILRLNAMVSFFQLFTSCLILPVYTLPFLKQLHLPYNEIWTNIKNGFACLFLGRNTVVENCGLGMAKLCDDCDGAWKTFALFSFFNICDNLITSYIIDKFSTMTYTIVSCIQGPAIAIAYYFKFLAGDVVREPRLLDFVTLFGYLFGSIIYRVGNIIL

## N[C@@H](CCC(=O)O)C(=O)O [L-glutamic acid]
PfCRT^3D7 [1]; [11]
  inhibition at 500 µM: 100 ± 3.8%
  inhibition at 1000 µM: 101 ± 5.2%
  inhibition at 2000 µM: 98 ± 5.7%
PfCRT^3D7 [1]; [12]
  inhibition at 500 µM: 2.2 ± 0.01%
  inhibition at 1000 µM: 2.8 ± 0.03%
  inhibition at 2000 µM: 3.2 ± 0.08%
PfCRT^Ecu1110 [2]; [13]
  inhibition at 500 µM: 92 ± 4.5%
  inhibition at 1000 µM: 93 ± 5.1%
PfCRT^Ecu1110 [2]; [14]
  inhibition at 500 µM: 31 ± 1.5%
  inhibition at 1000 µM: 31 ± 2%
  inhibition at 2000 µM: 32 ± 1.9%
PfCRT^Ecu1110 [2]; [15]
  inhibition at 500 µM: 94 ± 3.5%
  inhibition at 1000 µM: 96 ± 2.4%
  inhibition at 2000 µM: 99 ± 4.6%
PfCRT^Ecu1110 [2]; [16]
  inhibition at 500 µM: 28 ± 0.8%
  inhibition at 1000 µM: 28 ± 0.6%
  inhibition at 2000 µM: 29 ± 0.4%
PfCRT^Dd2 [3]; [17]
  inhibition at 500 µM: 96 ± 4.7%
  inhibition at 1000 µM: 94 ± 4.2%
  inhibition at 2000 µM: 94 ± 2.9%
PfCRT^Dd2 [3]; [18]
  inhibition at 1000 µM: 96 ± 2.5%
  inhibition at 2000 µM: 96 ± 3.3%
PfCRT^Dd2 [3]; [19]
  inhibition at 500 µM: 98 ± 2.7%
  inhibition at 1000 µM: 96 ± 2.5%
  inhibition at 2000 µM: 96 ± 3.3%
PfCRT^Dd2 [3]; [20]
  inhibition at 500 µM: 96 ± 4.7%
  inhibition at 1000 µM: 94 ± 4.2%
  inhibition at 2000 µM: 94 ± 2.9%
non-expressing oocytes [4]; [21]
  inhibition at 500 µM: 2.5 ± 0.05%
  inhibition at 1000 µM: 2.7 ± 0.07%
  inhibition at 2000 µM: 3.8 ± 0.07%
non-expressing oocytes [4]; [22]
  inhibition at 500 µM: 98 ± 4.7%
  inhibition at 1000 µM: 98 ± 3.7%
  inhibition at 2000 µM: 98 ± 5.2%
PfCRT [5]
  Compounds that have been tested as potential co-substrates but are not required for influx of VF-6 via PfCRT into the oocyte: X
non-expressing oocytes [6]; [test solute]i = 5 mM
  Uptake of [3H]CQ (% non-expressing oocyte control), trans-stimulation: 99 ± 2.1 % non-expressing oocyte control
non-expressing oocytes [6]; [test solute]i = 45 mM (30 mM for some solutes due to solubility)
  Uptake of [3H]CQ (% non-expressing oocyte control), trans-stimulation: 99 ± 3.3 % non-expressing oocyte control
non-expressing oocytes [6]; [test solute]i = 5 mM (intracellular)
  Uptake of [3H]CQ (% PfCRTDd2 control), trans-stimulation, non-expressing oocytes: 3.1 ± 0.08 % PfCRTDd2 control
non-expressing oocytes [6]; [test solute]i = 45 mM (intracellular; 30 mM for some solutes due to solubility)
  Uptake of [3H]CQ (% PfCRTDd2 control), trans-stimulation, non-expressing oocytes: 2.9 ± 0.05 % PfCRTDd2 control
PfCRT [7]
  Tested as potential co-substrate but not required for influx of VF-6 via PfCRT into the oocyte: X
PfCRT^Ecu1110 [8]; pH 5.5, read-out: PfCRT-mediated [3H]CQ transport, trans-stimulation (% PfCRTEcu1110 control), [test solute]i = 5 mM (intracellular), PfCRTEcu1110 oocytes, normalised to oocyte type control
  activity at 5000 µM: 97 ± 2.4%
PfCRT^Ecu1110 [8]; pH 5.5, read-out: Uptake of [3H]CQ (% PfCRTEcu1110 control), trans-stimulation, PfCRTEcu1110 oocytes, [test solute]i = 5 mM, total [3H]CQ transport, normalised to the oocyte type control
  activity at 5000 µM: 99 ± 3.6%
PfCRT^Ecu1110 [8]; pH 5.5, read-out: Uptake of [3H]CQ (% PfCRTEcu1110 control), trans-stimulation, PfCRTEcu1110 oocytes, [test solute]i = 45 mM (30 mM for some solutes due to solubility), total [3H]CQ transport, normalised to the oocyte type control
  activity at 45000 µM: 100 ± 3.7%
PfCRT^Ecu1110 [8]; read-out: Uptake of [3H]CQ (% PfCRTDd2 control), trans-stimulation, PfCRTEcu1110, total [3H]CQ transport, [test solute]i = 5 mM (intracellular), mean ± SEM, SEM
  activity at 5000 µM: 35 ± 1.5%
PfCRT^Ecu1110 [8]; read-out: Uptake of [3H]CQ (% PfCRTDd2 control), trans-stimulation, PfCRTEcu1110, total [3H]CQ transport, [test solute]i = 45 mM (intracellular; 30 mM for some solutes due to solubility), mean ± SEM, SEM
  activity at 45000 µM: 36 ± 2.1%
PfCRT^Dd2 [9]; pH 5.5, read-out: PfCRT-mediated [3H]CQ transport, trans-stimulation (% PfCRTDd2 control), [test solute]i = 5 mM (intracellular), PfCRTDd2 oocytes, normalised to oocyte type control
  activity at 5000 µM: 99 ± 3.5%
PfCRT^Dd2 [9]; pH 5.5, read-out: Uptake of [3H]CQ (% PfCRTDd2 control), trans-stimulation, PfCRTDd2, total [3H]CQ transport, [test solute]i = 5 mM (intracellular), mean ± SEM, SEM
  activity at 5000 µM: 101 ± 2.2%
PfCRT^Dd2 [9]; pH 5.5, read-out: Uptake of [3H]CQ (% PfCRTDd2 control), trans-stimulation, PfCRTDd2 oocytes, [test solute]i = 5 mM, total [3H]CQ transport, normalised to the oocyte type control
  activity at 5000 µM: 101 ± 2.2%
PfCRT^Dd2 [9]; pH 5.5, read-out: Uptake of [3H]CQ (% PfCRTDd2 control), trans-stimulation, PfCRTDd2 oocytes, total [3H]CQ transport, normalised to the oocyte type control
  activity at 45000 µM: 96 ± 2.8%
PfCRT^Dd2 [9]; pH 5.5, read-out: [3H]CQ transport (% PfCRTDd2 control), trans-stimulation, PfCRTDd2, trans-stimulation, [test solute]i = 5 mM (injected), PfCRT-mediated component (background subtracted), mean ± SEM, SEM
  activity at 5000 µM: 99 ± 3.5%
PfCRT^Dd2 [9]; pH 5.5, read-out: [3H]CQ transport (% PfCRTDd2 control), trans-stimulation, PfCRTDd2, trans-stimulation, PfCRT-mediated component (background subtracted), mean ± SEM, SEM
  activity at 45000 µM: 94 ± 4.2%
PfNT1
  activity at 5000 µM: 2.7 ± 0.06%
PfCRT^3D7 [10]; PfCRT3D7 oocytes, [test solute]i = 5 mM, total [3H]CQ transport, normalised to the oocyte type control, read-out: Uptake of [3H]CQ (% PfCRT3D7 control), trans-stimulation
  activity at 5000 µM: 101 ± 2.6%
PfCRT^3D7 [10]; SEM
  [3H]CQ transport (% PfCRT3D7 control), trans-stimulation, PfCRT3D7: 0.4 ± 0.02 % PfCRT3D7 control
PfCRT^3D7 [10]; [test solute]i = 5 mM (intracellular), PfCRT3D7 oocytes, normalised to oocyte type control, read-out: PfCRT-mediated [3H]CQ transport, trans-stimulation (% PfCRT3D7 control)
  activity at 5000 µM: 99 ± 3.9%
PfCRT^3D7 [10]; SEM, read-out: Uptake of [3H]CQ (% PfCRTDd2 control), trans-stimulation, PfCRT3D7
  activity at 45000 µM: 3.3 ± 0.02%
PfCRT^3D7 [10]; read-out: PfCRT-mediated [3H]CQ transport, trans-stimulation (% PfCRT3D7 control)
  activity at 45000 µM: 97 ± 1.8%
PfCRT^3D7 [10]; read-out: Uptake of [3H]CQ (% PfCRT3D7 control), trans-stimulation
  activity at 45000 µM: 99 ± 2.6%
PfCRT^3D7 [10]; total [3H]CQ transport, [test solute]i = 5 mM (intracellular), mean ± SEM, SEM, read-out: Uptake of [3H]CQ (% PfCRTDd2 control), trans-stimulation, PfCRT3D7
  activity at 5000 µM: 3.4 ± 0.02%
